Values quoted from earlier work, collected in patent publication US20150118313A1, “ENHANCED FOLIC ACID FLUORESCENT MATERIAL, MULTIFLUORESCENT POROUS COMPOSITIONS OF MATTER AND POTENTIAL APPLICATIONS THEREOF” (Nanologica AB, priority 2010, published 2015).
Entries after “also recorded” stand apart in the source; their conditions may differ.

What was measured:
[1] = aqueous solvent; solubility is dependent on pH
[2] = weak acid, neutralized in the range of pH 5-7

SMILES	solubility in aqueous solution [1]	pKa [2]
Nc1nc2ncc(CNc3ccc(C(=O)N[C@@H](CCC(=O)O)C(=O)O)cc3)nc2c(=O)[nH]1 [folic acid]	poor solubility	
O=C(O)c1ccc(-c2c3nc(c(-c4ccc(C(=O)O)cc4)c4ccc([nH]4)c(-c4ccc(C(=O)O)cc4)c4nc(c(-c5ccc(C(=O)O)cc5)c5ccc2[nH]5)C=C4)C=C3)cc1 [TCPP, Meso-tetrakis (4-carboxyphenyl) porphyrin]	scarcely soluble; also recorded: poor solubility	6.6
